Test results: the METLIN SMRT retention time set (Domingo-Almenara et al. 2019)

Assay: gradient 5% acetonitrile 3 min, to 50% in 2 min, to 85% in 15 min, held 3 min, 100 µL/min
Conditions: column: Zorbax Extend-C18 2.1 x 50 mm; eluents: water / acetonitrile, 0.1% formic acid
Outline: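 Each retention time is based on an adduct peak selected computationally and verified by manual inspection. Measurements used HPLC–quadrupole time-of-flight mass spectrometry in positive and negative ionization mode on mixtures of ~100 pure standards. Chromatography ran on a Zorbax Extend-C18 column (2.1 × 50 mm, 1.8 μm) at 100 μL/min with water and acetonitrile, each containing 0.1% formic acid, and dead and dwell volumes of 40 μL and 900 μL.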

RP-LC retention time [s] | SMILES
1070 | CCN(C(=O)CC(=O)OC)c1nc(-c2ccc(C)cc2)cs1
1050 | Cc1c(Cl)cccc1S(=O)(=O)N1CCc2c(c(-c3nnc(-c4ccccc4F)o3)nn2C)C1
819 | Cc1ccc(CNC(=O)c2ccc3ccnc(N4CCN(c5ccccc5)CC4)c3c2)o1
805 | CCn1cc(-c2nc(CC(=O)NCc3cccs3)cs2)c2cccnc21
600 | Cc1cccc(NC(=O)Cc2cn3cc(F)ccc3n2)c1C
684 | COC(=O)C1=C(C)NC2=C(C(=O)CC(C)(C)C2)C1c1cc(OC)c(OC)c(OC)c1 (stereo not given)
734 | Cc1ccc(NC(=O)C2CCN(S(=O)(=O)c3cn(C)cn3)CC2)cc1C
842 | Cc1ccc(N2CCC(NC(=O)c3ccc(C)s3)C2=O)cc1 (stereo not given)
1260 | CCCCc1ccc(NC(=O)Cn2cccc2-c2nc(-c3ccc4c(c3)OCO4)no2)cc1
671 | Cn1c(N2CCCC(C(=O)NCc3ccc4c(c3)OCO4)C2)cc(=O)n(C)c1=O (stereo not given)
647 | COc1ccc(C(O)CN2CCN(c3cccc(OC)c3)CC2)cc1 (stereo not given)
729 | CN1C(=O)Cc2ccccc2C1C(=O)NCc1cccc(F)c1 (stereo not given)
594 | Cc1noc([C@@H]2CN(Cc3cc(Cl)ccc3F)C[C@H]2CO)n1
847 | Cc1ccc(NC(=O)C2CCN(S(=O)(=O)c3cc(C(=O)N(C)C)cs3)CC2)cc1F
715 | Cc1cc2[nH]c(C(=O)Nc3cc(F)cc(F)c3)c(CN(C)C)c2s1
698 | CCOC(=O)C1CCN(C(=O)C2CCCN(c3nccc(C)n3)C2)CC1 (stereo not given)
626 | Cc1[nH]ncc1CNC(=O)C1CCN(C(=O)c2ncn3c2COC(c2ccc(F)cc2)C3)CC1 (stereo not given)
700 | Cc1ccn2c(NC(=O)c3ccc(Cl)c([N+](=O)[O-])c3)c(-c3ccccc3)nc2c1
973 | Clc1cccc(-c2nnc(-c3nc(N4CCOCC4)c4ccccc4n3)o2)c1
701 | Cc1cccc(CNC(=O)C2CCCN(c3cc(=O)n(C)c(=O)n3C)C2)c1 (stereo not given)
771 | Cc1cccc(NC(=O)c2nc3ccccc3[nH]c2=O)c1
634 | CN(C)C(=O)N1CC(c2noc(-c3cccnc3)n2)C2(CCOCC2)C1 (stereo not given)

RP-LC retention time [s] | SMILES
966 | O=C(CN1C(=O)C2CCCCN2c2ccc(S(=O)(=O)N3CCCC3)cc21)NCCc1ccccc1 (stereo not given)
636 | Cn1nnnc1C1CCCN(C(=O)C2CCC2)C1 (stereo not given)
652 | CCN(CC)CCCNC(=O)C1CCCN(C(=O)c2nnc(C(=O)Nc3ccc(F)cc3)s2)C1 (stereo not given)
647 | O=C(CSc1nnc(CNC(=O)c2ccc(F)cc2)o1)NCc1ccco1
824 | CSc1nnc(Cn2c(=O)sc3ccccc32)n1-c1cccc(C(F)(F)F)c1
655 | Cc1cc(C)cc(C(=O)N2CCc3[nH]nc(C(=O)N(C)C)c3C2)c1
587 | Cn1cnnc1CC1CCN(C(=O)Nc2ccccc2)C1 (stereo not given)
779 | Cc1nn(C2CCS(=O)(=O)C2)c2nc(-c3ccc(F)cc3)cc(C(=O)N3CCCC3)c12 (stereo not given)
771 | Cc1nnc(N2CCCC(C(=O)NCc3ccc(F)cc3)C2)c2nn(-c3ccc(Cl)cc3)c(C)c12 (stereo not given)
964 | O=C(Nc1cccc(Cl)c1)C1CCCN(S(=O)(=O)c2c[nH]c(C(=O)N3CCCCCC3)c2)C1 (stereo not given)
785 | CCOc1ccc(CNC(=O)C2CCCN(c3nnc(C)c4c(C)n(-c5ccc(C)cc5)nc34)C2)cc1 (stereo not given)
605 | Cc1ccc(CNC(=O)c2cc3n(n2)CC(C)(C(=O)NC2CCCCC2)N(C)C3=O)cc1 (stereo not given)
1210 | O=C1CC(c2noc(-c3cccc(OC(F)(F)F)c3)n2)CN1c1ccc(F)c(Cl)c1 (stereo not given)
759 | O=C([C@@H]1C[C@H](F)CN1S(=O)(=O)c1ccc2c(c1)OCCO2)N1CCCCC1
747 | Cc1cc2c(cc1S(=O)(=O)N1CCCC1C(=O)N1CCN(c3ccccc3)CC1)OCC(=O)N2 (stereo not given)
1090 | CCSc1nnc(-c2nn(C)c3c2CN(S(=O)(=O)c2ccc(C(C)C)cc2)CC3)n1CC
603 | COCC(=O)NC1CCC12CCN(C(=O)C1CCOCC1)CC2 (stereo not given)
901 | CC(=O)NC(C)c1nc(-c2ccc(C(C)(C)C)cc2)no1 (stereo not given)
904 | CCN1C(=O)CCc2cc(NS(=O)(=O)c3ccc(Cl)c(Cl)c3)ccc21
630 | COc1ccc(CN2CC(C(=O)N3CCN(c4cc(=O)n(C)c(=O)n4C)CC3)CC2=O)cc1 (stereo not given)
528 | O=C(Cn1nc(-c2cccnc2)ccc1=O)Nc1nc2ccccc2[nH]1
901 | COc1ccc(-c2noc(C3CCCN3C(=O)c3ccccc3OC)n2)cc1 (stereo not given)

RP-LC retention time [s] | SMILES
607 | CC(C)CN1C(=O)c2ccccc2C(C(=O)NCCCN2CCN(C)CC2)C1c1cccs1 (stereo not given)
812 | CC(C)N1C(=O)c2cccnc2Sc2cc(C(=O)NC3CCCC3)ccc21
764 | COCCCNC(=O)c1nc2ccccn2c1-c1ccc(Cl)cc1
1100 | Cc1nn(-c2ccccc2)c2nc(C3CC3)cc(C(=O)NCc3ccco3)c12
1030 | CCc1noc(C2(NC(=O)c3ccc(Br)cc3)CCCCC2)n1
1110 | Fc1cccc(-c2noc(Cc3nnc(-c4cccc(Cl)c4)o3)n2)c1
927 | COc1ccc(Cc2nc(-c3ccc4c(c3)nc(C)c(=O)n4C)no2)cc1
954 | Cn1cc2nc(SCC(=O)Nc3ccc(Cl)cc3F)n(CC3CC3)c(=O)c2n1
889 | O=C(NCc1ccco1)c1ccc2c(c1)CCCN2C(=O)c1cccc(Cl)c1
1020 | CCN(CC)S(=O)(=O)c1ccc(Cl)c(-c2nnc(-c3ccccc3OC)o2)c1
617 | O=C(Nc1nnc(-c2cccs2)o1)c1cccc(N2C(=O)CCC2=O)c1
601 | CC(C)n1c(N2CCN(C(=O)c3ccncc3)CC2)cc(=O)n(C(C)C)c1=O
708 | CCCNC(=O)N1CCC2(CC1)C(=O)N(C)c1ccccc12
895 | O=C(NCc1ccc(F)cc1F)C1=C2CCCN2c2ccc(F)cc2S1(=O)=O
748 | CCOC(=O)c1cccc(Nc2c(-c3cccc(O)c3)nc3cnccn23)c1
940 | CCc1cccc(NC(=O)Cn2nc(N3CCSCC3)c3ccccc3c2=O)c1
721 | CC(C)c1noc(-c2cccnc2N2CCCN(Cc3c(F)cccc3Cl)CC2)n1
809 | Cn1cccc1-c1cc2n(n1)CCCN2C(=O)CCC(=O)N1CCc2ccccc2C1
896 | COC[C@@H]1OCCN(S(=O)(=O)c2cc(OC)ccc2OC)[C@H]1c1ccccc1
743 | Cc1cccc(-n2cc(C(=O)OCc3ccncc3)c3ccccc3c2=O)c1
955 | Cc1cc(C)cc(C(=O)N2CCCC(C(=O)NC3CCCCCC3)C2)c1 (stereo not given)
